Source: patent publication US20250049798A1, “WEE1 PROTEIN KINASE DEGRADATION AGENT AND USE THEREOF” (HANGZHOU GLUBIO PHARMACEUTICAL CO. LTD., priority 2021, published 2025)
Where two headings read alike, the source gives them in different places.

Biological target: HiBiT tagged Wee1 (Homo sapiens, UniProt P30291)
Assay: Wee1 protein degradation assay (HiBiT assay)
Type: cell-based
[1] = engineered HT-1080 cells, 20 hours
[2] = engineered HT-1080 cells, 20 hours, maximum percentage of Wee1 degradation, read-out: HiBiT Wee1: Dmax

HiBiT tagged Wee1, sequence (P30291 whole entry): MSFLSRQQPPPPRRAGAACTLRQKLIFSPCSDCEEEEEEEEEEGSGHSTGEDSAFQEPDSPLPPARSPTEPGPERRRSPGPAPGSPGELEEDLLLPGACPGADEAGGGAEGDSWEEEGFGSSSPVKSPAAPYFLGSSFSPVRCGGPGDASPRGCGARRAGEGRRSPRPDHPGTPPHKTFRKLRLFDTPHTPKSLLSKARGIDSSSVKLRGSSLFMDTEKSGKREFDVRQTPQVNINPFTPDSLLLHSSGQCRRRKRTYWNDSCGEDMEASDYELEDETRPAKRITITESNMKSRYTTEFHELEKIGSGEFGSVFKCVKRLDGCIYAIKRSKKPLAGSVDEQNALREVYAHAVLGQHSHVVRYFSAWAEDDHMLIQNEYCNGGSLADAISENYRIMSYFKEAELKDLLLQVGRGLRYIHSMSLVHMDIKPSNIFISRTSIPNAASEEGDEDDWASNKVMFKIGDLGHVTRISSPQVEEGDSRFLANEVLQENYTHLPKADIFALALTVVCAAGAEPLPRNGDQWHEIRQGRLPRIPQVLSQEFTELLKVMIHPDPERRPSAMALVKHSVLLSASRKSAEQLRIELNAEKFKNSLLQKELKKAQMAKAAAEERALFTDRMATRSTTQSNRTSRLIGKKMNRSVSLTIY

DC50 [1] | Dmax [2] | SMILES | Dmax (HT-1080, […], maximum percentage of Wee1 degradation, read-out: HiBiT Wee1: Dmax) | Dmax (HT-1080, read-out: HiBiT Wee1: Dmax)
< 100 nM | 50 to 75% | C=CCn1c(=O)c2cnc(Nc3ccc(N4CC(N5CC6(CCN(c7ccc(NC8CCC(=O)NC8=O)cc7F)CC6)C5)C4)cc3)nc2n1-c1ccc2c(n1)[C@@](O)(CC)CC2 (some centres unmarked) [Compound 172] | – | –
> 1000 nM | < 50% | Cc1cc(Nc2ncc3c(n2)N(C)CN(c2c(Cl)cccc2Cl)C3=O)ccc1N1CCC(CN2CCN(c3cccc4c3C(=O)N(C3CCC(=O)NC3=O)C4=O)CC2)CC1 (centres unmarked) [Compound 31] | – | –
< 100 nM | 50 to 75% | C=CCn1c(=O)c2cnc(Nc3ccc(N4CCN(CCCCc5cccc6c5CN(C5CCC(=O)NC5=O)C6=O)CC4)cc3)nc2n1-c1cccc(C(C)(C)O)n1 (centres unmarked) [Compound 50] | – | –
< 100 nM | > 75% | C=CCn1c(=O)c2cnc(Nc3ccc(N4CCN(CC5CCN(c6ccc(NC7CCC(=O)NC7=O)cc6F)CC5)CC4)cc3)nc2n1-c1ccc2c(n1)[C@](C)(O)CCC2 (single isomer, unassigned) [Compound 190] | – | –
< 100 nM | > 75% | C=CCn1c(=O)c2cnc(Nc3ccc(N4CCC(CN5CCN(c6cccc7c6n(C)c(=O)n7C6CCC(=O)NC6=O)CC5)CC4)cc3)nc2n1-c1cccc(C(C)(C)O)n1 (centres unmarked) [Compound 90] | – | –
< 100 nM | > 75% | C=CCn1c(=O)c2cnc(Nc3ccc(N4CCN(CC5CCN(c6ncc(NC7CCC(=O)NC7=O)cc6F)CC5)CC4)nc3)nc2n1-c1ccc2c(n1)[C@@](O)(CC)CC2 (some centres unmarked) [Compound 195] | – | –
< 100 nM | 50 to 75% | C=CCn1c(=O)c2cnc(Nc3ccc(N4CCC(N(C)C5CCN(c6cccc7c6n(C)c(=O)n7C6CCC(=O)NC6=O)CC5)CC4)cc3)nc2n1-c1cccc(C(C)(C)O)n1 (centres unmarked) [Compound 98] | – | –
< 100 nM | > 75% | C=CCn1c(=O)c2cnc(Nc3ccc(N4CCC(CN5CCN(c6ccc(NC7CCC(=O)NC7=O)cc6F)CC5)CC4)c(C)c3)nc2n1-c1ccc2c(n1)[C@@](O)(CC)CC2 (some centres unmarked) [Compound 134] | – | –
< 100 nM | 50 to 75% | C=CCn1c(=O)c2cnc(Nc3ccc(C4CCN(C5CCN(c6ccc7c(c6)C(=O)N(C6CCC(=O)NC6=O)C7=O)CC5)CC4)cc3)nc2n1-c1ccc2c(n1)[C@@](O)(CC)CC2 (some centres unmarked) [Compound 75] | – | –
< 100 nM | 50 to 75% | C=CCn1c(=O)c2cnc(Nc3ccc(N4CCN(CC5CN(c6ccc7c(c6)C(=O)N(C6CCC(=O)NC6=O)C7=O)C5)CC4)c(C)c3)nc2n1-c1cccc(C(C)(C)O)n1 (centres unmarked) [Compound 12] | – | –
< 100 nM | > 75% | C=CCn1c(=O)c2cnc(Nc3ccc(N4CCN(C[C@@H]5CCN(c6ccc(NC7CCC(=O)NC7=O)cc6F)C5)CC4)cc3)nc2n1-c1cccc(C(C)(C)O)n1 (some centres unmarked) [Compound 139] | – | –
< 100 nM | 50 to 75% | C=CCn1c(=O)c2cnc(Nc3ccc(N4CCN(CC5CCN(c6cccc7c(N8CCC(=O)NC8=O)nn(C)c67)CC5)CC4)cc3)nc2n1-c1cccc(C(C)(C)O)n1 [Compound 143] | – | –
> 1000 nM | 50 to 75% | O=C1CCC(N2C(=O)c3ccc(N4CC(N5CCC(c6ccc(Nc7ncc8c(=O)n(-c9c(Cl)cccc9Cl)c9nccn9c8n7)cc6)CC5)C4)cc3C2=O)C(=O)N1 (centres unmarked) [Compound 42] | – | –
< 100 nM | 50 to 75% | C=CCn1c(=O)c2cnc(Nc3ccc(N4CCN(CC5CCN(Cc6cccc7c6n(C)c(=O)n7C6CCC(=O)NC6=O)CC5)CC4)cc3)nc2n1-c1cccc(C(C)(C)O)n1 (centres unmarked) [Compound 64] | – | –
< 100 nM | > 75% | C=CCn1c(=O)c2cnc(Nc3ccc(N4CCN(CC5CCN(c6ccc(NC7CCC(=O)NC7=O)cc6F)CC5)CC4)c(C)c3)nc2n1-c1ccc2c(n1)[C@@](C)(O)CC2 (some centres unmarked) [Compound 131] | – | –
< 100 nM | 50 to 75% | C[C@@]1(O)CC/C=C\Cn2c(=O)c3cnc(Nc4ccc(N5CCN(CC6CCN(c7ccc(NC8CCC(=O)NC8=O)cc7F)CC6)CC5)cc4)nc3n2-c2cccc1n2 (single isomer, unassigned) [Compound 142] | – | –
< 100 nM | > 75% | C=CCn1c(=O)c2cnc(Nc3ccc(N4CCN(CC5CCN(c6ccc(NC7CCC(=O)NC7=O)cc6F)CC5)CC4)c(C)c3)nc2n1-c1ccc2c(n1)[C@@](O)(CC)CC2 (some centres unmarked) [Compound 128] | – | –

Further lines, the compound ahead of its results:

SMILES | DC50 [1] | Dmax [2] | Dmax (HT-1080, […], maximum percentage of Wee1 degradation, read-out: HiBiT Wee1: Dmax) | Dmax (HT-1080, read-out: HiBiT Wee1: Dmax)
C=CCn1c(=O)c2cnc(Nc3ccc(N4CCN(CC5CCN(c6ccc(NC7CCC(=O)NC7=O)cn6)CC5)CC4)cc3)nc2n1-c1ccc2c(n1)[C@@](O)(CC)CC2 (some centres unmarked) [Compound 136] | < 100 nM | > 75% | – | –
C=CCn1c(=O)c2cnc(Nc3ccc(N4CCC(N5CCN(c6ccc7c(c6)C(=O)N(C6CCC(=O)NC6=O)C7=O)CC5)CC4)cc3)nc2n1-c1cccc(C(C)(C)O)n1 (centres unmarked) [Compound 77] | < 100 nM | 50 to 75% | – | –
C=CCn1c(=O)c2cnc(Nc3ccc(C4CCN(CC5CCN(c6ccc(NC7CCC(=O)NC7=O)cc6F)CC5)CC4)cc3)nc2n1-c1cccc(C(C)(C)O)n1 (centres unmarked) [Compound 73] | < 100 nM | > 75% | – | –
C=CCn1c(=O)c2cnc(Nc3ccc(N4CCN(CC5CCN(c6ccc(NC7CCC(=O)NC7=O)cc6F)CC5)CC4)cc3)nc2n1-c1ccc2c(n1)[C@@](O)(CC)CCC2 (single isomer, unassigned) [Compound 188] | < 100 nM | > 75% | – | –
Cc1cc(Nc2ncc3c(n2)N(C)CN(c2c(Cl)cccc2Cl)C3=O)ccc1C1CCN(CC2CCN(c3cccc4c3C(=O)N(C3CCC(=O)NC3=O)C4=O)CC2)CC1 (centres unmarked) [Compound 19] | > 1000 nM | < 50% | – | –
C=CCn1c(=O)c2cnc(Nc3ccc(N4CCN(CC5CCN(c6ccc(NC7CCC(=O)NC7=O)cc6F)CC5)CC4)cc3)nc2n1-c1cccc(C(C)(C)C)n1 (centres unmarked) [Compound 204] | < 100 nM | > 75% | – | –
Cc1cc(Nc2ncc3c(n2)N(C)CN(c2c(Cl)cccc2Cl)C3=O)ccc1N1CCC(CN2CCC(c3ccc4c(c3)C(=O)N(C3CCC(=O)NC3=O)C4=O)CC2)CC1 (centres unmarked) [Compound 33] | > 1000 nM | – | < 50% | –
C=CCn1c(=O)c2cnc(Nc3ccc(N4CCN(CC5CCN(c6cc(OC)c(NC7CCC(=O)NC7=O)cc6F)CC5)CC4)cc3)nc2n1-c1ccc2c(n1)[C@@](O)(CC)CC2 (some centres unmarked) [Compound 177] | < 100 nM | > 75% | – | –
Cc1cc(Nc2ncc3c(n2)N(C)CN(c2c(Cl)cccc2Cl)C3=O)ccc1N1CCC(CN2CC3(C2)CN(c2ccc4c(c2)C(=O)N(C2CCC(=O)NC2=O)C4=O)C3)CC1 (centres unmarked) [Compound 32] | 100 to 1000 nM | 50 to 75% | – | –
C=CCn1c(=O)c2cnc(Nc3ccc(N4CCC(CN5CCN(c6ccc(OC7CCC(=O)NC7=O)cc6F)CC5)CC4)cc3)nc2n1-c1cccc(C(C)(C)O)n1 (centres unmarked) [Compound 149] | < 100 nM | > 75% | – | –
C=CCn1c(=O)c2cnc(Nc3ccc4c(c3)CN(CCCCCCNc3ccc5c(c3)C(=O)N(C3CCC(=O)NC3=O)C5=O)CC4)nc2n1-c1cccc(C(C)(C)O)n1 (centres unmarked) [Compound 22] | > 1000 nM | – | – | < 50%
O=C1CCC(Nc2ccc(N3CCC(CN4CCN(c5ccc(Nc6ncc7c(=O)n(-c8c(Cl)cccc8Cl)c8nccn8c7n6)cc5)CC4)CC3)c(F)c2)C(=O)N1 (centres unmarked) [Compound 83] | < 100 nM | > 75% | – | –
C=CCn1c(=O)c2cnc(Nc3ccc(N4CCC(CN5CCN(c6ccc7c(N8CCC(=O)NC8=O)nn(C)c7c6)CC5)CC4)cc3)nc2n1-c1ccc2c(n1)[C@@](C)(O)CC2 [Compound 126] | < 100 nM | 50 to 75% | – | –
C=CCn1c(=O)c2cnc(Nc3ccc(N4CCN(CCCc5ccc6c(c5)C(=O)N(C5CCC(=O)NC5=O)C6=O)CC4)cc3)nc2n1-c1cccc(C(C)(C)O)n1 (centres unmarked) [Compound 45] | < 100 nM | > 75% | – | –
